# Reference: article PMC11930087, “Mobility of four structural regions drives isoform-specific properties of photoenzyme LPOR in plants” (The Journal of Biological Chemistry, 2025)
# pKd: −log10 of the molar value.
# What was measured:
# SlPOR2 = target: T1, SlPOR2 (Solanum lycopersicum, UniProt A0A3Q7IBI0); experiment: […] K Pchlide fluorescence in darkness, F648/F635 ratio vs NADPH, hyperbolic fit; assay type: binding; conditions: lipid-free; 5 μM Pchlide, 15 μM LPOR, pH 7.1, room-temperature dark incubation; apparent parameter, exact value in supplement; read-out: KM^D
# T1 construct: gene POR; transit peptide removed; pET15b
# T1 sequence (A0A3Q7IBI0 62-395): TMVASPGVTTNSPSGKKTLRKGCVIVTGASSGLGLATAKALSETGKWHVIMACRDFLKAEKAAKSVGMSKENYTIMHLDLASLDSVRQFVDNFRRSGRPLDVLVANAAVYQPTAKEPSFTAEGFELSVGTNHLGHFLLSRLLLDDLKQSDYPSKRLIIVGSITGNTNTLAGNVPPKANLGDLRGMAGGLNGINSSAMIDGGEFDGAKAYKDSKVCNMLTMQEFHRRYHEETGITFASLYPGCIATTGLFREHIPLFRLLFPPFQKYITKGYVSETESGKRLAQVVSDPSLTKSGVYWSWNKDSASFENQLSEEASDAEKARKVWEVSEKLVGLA
# AtPORA [1] = target: T2, AtPORA (Arabidopsis thaliana, UniProt Q42536); experiment: as above; assay type: binding; conditions: lipid-free; 5 μM Pchlide, 15 μM LPOR, pH 7.1, room-temperature dark incubation; apparent parameter, exact value in supplement; read-out: KM^D
# T2 construct: gene PORA
# T2 sequence (Q42536 70-405): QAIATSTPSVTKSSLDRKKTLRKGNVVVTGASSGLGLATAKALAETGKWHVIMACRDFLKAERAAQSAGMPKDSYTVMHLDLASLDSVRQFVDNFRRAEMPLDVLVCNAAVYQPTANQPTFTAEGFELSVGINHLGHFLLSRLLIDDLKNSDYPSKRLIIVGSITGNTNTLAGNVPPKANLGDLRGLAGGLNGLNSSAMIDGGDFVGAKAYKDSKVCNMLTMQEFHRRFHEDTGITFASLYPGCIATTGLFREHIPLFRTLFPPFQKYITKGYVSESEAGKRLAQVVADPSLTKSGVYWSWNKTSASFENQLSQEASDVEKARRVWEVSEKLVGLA
# TaPOR1 [2] = target: T3, TaPOR1 (Triticum aestivum, UniProt Q41578); experiment: as above; assay type: binding; conditions: lipid-free; 5 μM Pchlide, 15 μM LPOR, pH 7.1, room-temperature dark incubation; apparent parameter, exact value in supplement; read-out: KM^D
# T3 construct: gene PORA
# T3 sequence (Q41578 75-388): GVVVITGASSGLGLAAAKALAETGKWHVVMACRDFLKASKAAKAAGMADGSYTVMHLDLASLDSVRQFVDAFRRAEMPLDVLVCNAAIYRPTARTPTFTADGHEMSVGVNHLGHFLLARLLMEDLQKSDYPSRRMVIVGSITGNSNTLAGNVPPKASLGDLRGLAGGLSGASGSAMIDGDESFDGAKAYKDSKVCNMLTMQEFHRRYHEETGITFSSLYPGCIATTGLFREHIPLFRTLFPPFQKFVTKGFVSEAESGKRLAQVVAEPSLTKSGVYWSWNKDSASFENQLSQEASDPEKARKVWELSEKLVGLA
# AtPORB [3] = target: T4, AtPORB (Arabidopsis thaliana, UniProt P21218); experiment: as above; assay type: binding; conditions: lipid-free; 5 μM Pchlide, 15 μM LPOR, pH 7.1, room-temperature dark incubation; apparent parameter, exact value in supplement; read-out: KM^D
# T4 construct: gene PORB
# T4 sequence (P21218 67-401): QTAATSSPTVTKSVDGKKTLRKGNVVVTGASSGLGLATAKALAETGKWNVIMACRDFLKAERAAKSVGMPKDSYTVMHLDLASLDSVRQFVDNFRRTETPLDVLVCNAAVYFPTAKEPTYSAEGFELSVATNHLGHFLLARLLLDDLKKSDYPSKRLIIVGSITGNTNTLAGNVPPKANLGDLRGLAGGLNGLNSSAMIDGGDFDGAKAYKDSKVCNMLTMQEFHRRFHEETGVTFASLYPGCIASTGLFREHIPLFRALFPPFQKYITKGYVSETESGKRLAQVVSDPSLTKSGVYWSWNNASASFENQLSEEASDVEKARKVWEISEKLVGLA
# AtPORA [4] = target: T2, AtPORA; conditions: 400 uM OPT lipids; substrate; read-out: illuminated, 400 uM OPT, KM^L
# Text: (§1) All samples were thawed in darkness, illuminated for 20 s to initiate the reaction, and then frozen again and remeasured. […] These plots also resembled saturation curves, to which a hyperbolic function similar to the modified Michaelis–Menten equation could be fitted (Figs. 3C, S5, Materials and Methods).
# AtPORB [5] = target: T4, AtPORB; conditions: 400 uM OPT lipids; substrate; read-out: illuminated, 400 uM OPT, KM^L
# Text: as §1
# AtPORC = target: T5, AtPORC (Arabidopsis thaliana, UniProt O48741); conditions: 400 uM OPT lipids; substrate; read-out: illuminated, 400 uM OPT, KM^L
# T5 construct: gene PORC
# T5 sequence (O48741 68-401): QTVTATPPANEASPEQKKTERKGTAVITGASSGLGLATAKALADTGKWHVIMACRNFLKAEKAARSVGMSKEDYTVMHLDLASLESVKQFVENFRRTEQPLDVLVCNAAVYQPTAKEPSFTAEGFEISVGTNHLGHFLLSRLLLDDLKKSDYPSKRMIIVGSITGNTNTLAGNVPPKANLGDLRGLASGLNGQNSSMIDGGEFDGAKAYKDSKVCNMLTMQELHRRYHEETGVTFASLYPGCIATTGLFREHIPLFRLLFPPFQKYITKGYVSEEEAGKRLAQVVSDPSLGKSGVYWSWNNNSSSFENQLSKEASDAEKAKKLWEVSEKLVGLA
# Text: as §1
# TaPOR1 [6] = target: T3, TaPOR1; conditions: 400 uM OPT lipids; substrate; read-out: illuminated, 400 uM OPT, KM^L
# Text: as §1
# TaPOR2 = target: T6, TaPOR2 (Triticum aestivum, UniProt A0A3B5XZQ9); conditions: 400 uM OPT lipids; substrate; read-out: illuminated, 400 uM OPT, KM^L
# T6 construct: gene LOC123047424
# T6 sequence (A0A3B5XZQ9 60-395): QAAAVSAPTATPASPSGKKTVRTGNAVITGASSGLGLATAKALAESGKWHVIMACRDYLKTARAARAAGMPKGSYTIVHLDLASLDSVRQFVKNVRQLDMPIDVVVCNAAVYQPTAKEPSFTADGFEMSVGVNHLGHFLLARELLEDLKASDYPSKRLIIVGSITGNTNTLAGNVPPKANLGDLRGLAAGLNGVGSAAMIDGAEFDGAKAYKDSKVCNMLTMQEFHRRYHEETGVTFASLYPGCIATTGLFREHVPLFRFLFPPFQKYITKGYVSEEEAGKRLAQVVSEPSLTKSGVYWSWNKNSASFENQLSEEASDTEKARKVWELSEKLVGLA
# Text: as §1
compound,measurement,setting,value
NC(=O)C1=CN([C@@H]2O[C@H](COP(=O)(O)OP(=O)(O)OC[C@H]3O[C@@H](n4cnc5c(N)ncnc54)[C@H](OP(=O)(O)O)[C@@H]3O)[C@@H](O)[C@H]2O)C=CC1 [NADPH],pKd,SlPOR2,> 5.00
same,pKd,AtPORA [1],< 4.00
same,pKd,TaPOR1 [2],< 4.00
same,pKd,AtPORB [3],< 4.00
same,Km,AtPORA [4],2.5 µM
same,Km,AtPORB [5],1.3 µM
same,Km,AtPORC,0.7 µM
same,Km,TaPOR1 [6],39.7 µM
same,Km,TaPOR2,6.1 µM
